The values below come from patent US9963674B2, “Age-modified cells and methods for making age-modified cells” (Memorial Sloan-Kettering Cancer Center, priority 2013, dated 2018).

The subject of series [1] is iPSC-derived fibroblasts. Put plainly: Progerin modified-RNA overexpression in iPSC-derived fibroblasts, age-associated markers (immunocytochemistry, MitoSOX). The series is classed as cell-based, human. To be noted: modified-RNA 3 days; young and old donor iPSC-derived fibroblasts; vs nuclear-GFP. Here is the method: The following is a protocol for progerin overexpression using modified-RNA in differentiating or differentiated iPSC-derived cells: • 1. Prepare progerin-modified-RNA (methods of synthesis are described in Example 9) and deliver to iPSC-derived somatic cells using Lipofectamine RNAiMAX (Life Technologies) and incubate • a. For iPSC-derived fibroblasts repeat transfection for 3 consecutive days. • i. Note: Amount/duration combination optimizes treatment for minimal toxicity and earliest significant effects. • b. For iPSC-derived dopamine neurons repeat transfection for 5 consecutive days. • i. Note: Amount/duration combination optimizes treatment for minimal toxicity and earliest significant effects. • c. For other iPSC-derived somatic cells perform pilot experiments to determine amount and duration of progerin modified-RNA. • d. Analyze maturation and/or age-associated phenotypes. • Alternatively, expression of progerin can also be achieved through the use of temperature-sensitive Sendai virus expressing progerin. Additionally, expression of progerin can be achieved by using lentivirus.
For overexpression experiments, modified-RNA was thawed on ice and adjusted to a working concentration of 100 ng/μl. Per 100,000-cell transfection, 200 ng of modified-RNA was diluted up to 10 μl in Opti-MEM medium (Life Technologies), vortexed, and incubated at room temperature for 10 minutes. In a separate tube, 0.6 μl Lipofectamine RNAiMAX® (Life Technologies) was diluted up to 10 μl in Opti-MEM and incubated for the same timeframe. The Lipofectamine mixture was then transferred to the tube containing the modified-RNA mixture, vortexed and incubated for an additional 10 minutes. The transfection mixture was added dropwise to cells that had been pre-treated with 200 ng/ml of the interferon inhibitor B18R (eBioscience, San Diego, Calif.) for at least 4 hours prior to transfection.
After 4 hours at 37° C., the entire suspension was replaced with fresh medium supplemented with B18R. Transfection of iPSC-derived fibroblasts was performed starting on day 50 of differentiation and repeated on 2 consecutive days thereafter. iPSC-derived mDA neurons were transfected starting on day 65 or day 120 of differentiation and repeated on 4 consecutive days thereafter. The additional 2 days of transfections were done in order to establish a phenotype in iPSC-derived mDA neurons. Cells were analyzed one day after the final transfection.
(§1) Cells were fixed in 4% paraformaldehyde for 15 minutes. Blocking was performed in phosphate-buffered saline supplemented with 1% BSA, and 0.3% Triton X-100 for 30 minutes to 1 hour. Cells were stained overnight at 4° C. with primary antibodies diluted in blocking buffer. Following several washes, cells were stained with appropriate Alexa Fluor-labeled secondary antibodies (Molecular Probes, Carlsbad, Calif.) at 1:500 in blocking buffer for 30 minutes to 3 hours at room temperature. Cells were counterstained with 4′,6-diamidino-2-phenylindole (DAPI; Thermo Fisher, Rockford, Ill.) to visualize nuclei. Images were acquired with an Olympus IX81 microscope using a Hamamatsu ORCA CCD camera.
Images were acquired on an Operetta (PerkinElmer, Waltham, Mass.) using a 20× objective. Image processing was performed using Harmony high content analysis software (version 3.0).
Passage-matched cells were scored from three independent experiments. […] In these cases, 50 cells per condition were assessed for each independent experiment. […]

In series [2] the test system is iPSC-derived mDA neuron grafts in NOD-SCID IL2Rgc-null mice. As to the kind of experiment: Ultrastructural analysis of grafts by transmission electron microscopy. The series is classed as in vivo. Conditions: six months, PD-derived grafts overexpressing progerin. How it is done: Procedures were performed according to (Milner et al., Methods Mol Biol 793:23-59 (2011)). Briefly, six months following transplantation of human iPSC-derived mDA neurons, mice were overdosed with 150 mg/kg sodium pentobarbital intraperitoneally. The brains were fixed by aortic arch perfusion sequentially with normal saline (0.9%) containing 1000 units/ml of Heparin, 50 ml of 3.75% acrolein and 2% paraformaldehyde in 0.1 M phosphate buffer (PB, pH 7.4), and 200 ml of 2% PFA in PB. The brains were removed and post-fixed with 1.87% acrolein/2% PFA in PB for 30 minutes at room temperature. Coronal tissue blocks were sectioned (40 μm) on a vibrating microtome (Leica Microsystems, Deerfield, Ill.). Selected sections containing the xenograft were pretreated in 1% sodium borohydride. Non-specific binding was blocked with 0.5% BSA 0.1 M Tris-saline (TS, pH 7.6). Primary antibodies (see Table S4) were diluted in 0.1% BSA in TS and incubated overnight at 4° C. Sections were incubated with a biotinylated secondary antibody (Jackson ImmunoResearch, West Grove, Pa.) for 30 minutes at room temperature. […] The number of TH-immunogold particles per μm^2 in 25 dendrites per group and the area (μm^2) quantification of 25 mitochondria per group were performed using ImageJ.

In series [3] the test system is iPSC-derived fibroblasts. As to the kind of experiment: Senescence-activated beta-galactosidase staining in iPSC-derived fibroblasts. Conditions: iPSC-derived fibroblasts overexpressing progerin. In kind it is cell-based, human. Here is the method:
Senescence-activated beta-galactosidase was assessed using the staining kit from Cell Signaling according to the manufacturer's instructions. Positive cell staining was manually assessed (2 replicates, 50 cells each).

A further series concerns iPSC-derived mDA neurons. Put plainly: Neurite/dendrite quantification (TUJ1, MAP2) in iPSC-derived mDA neurons. In kind it is cell-based, human. How it is done: as §1
Following immunostaining with MAP2 to label dendrites, randomly chosen images of GFP+ cells were manually acquired on an Olympus IX81 microscope using a Hamamatsu ORCA CCD camera using a 40× objective. Dendrite lengths were measured using ImageJ to trace each labeled neurite extending from GFP+ nuclei. Cells with perinuclear MAP2 staining were given a zero. GFP+ nuclei without MAP2 staining as well as cells with condensed GFP+ nuclei were not scored. Fifty cells per condition were assessed for each of three independent differentiations.

As to “GFP-progerin: progerin (truncated lamin A) fused to GFP, SEQ ID No. 2, overexpressed via modified-RNA or hSyn lentivirus”, in the series on iPSC-derived fibroblasts [1], the “DNA damage (γH2AX)” value is reported as “formation of DNA double strand breaks”; the LAP2α expression result was “loss of LAP2α expression”; the “heterochromatin markers (H3K9me3 and HP1γ)” value was “loss of heterochromatin markers”; the “mitochondrial superoxide (MitoSOX)” value was “increased mitochondrial dysfunction”. Besides, the nuclear morphology entry in the series on iPSC-derived fibroblasts [1] is “induced nuclear morphology abnormalities”. Besides, the “fibrillar bodies (neurite degeneration)” value in series [2] is given as “prominent”. In addition, the SA-β-Gal staining result in the series with iPSC-derived fibroblasts [3] is “increase in senescence-activated β galactosidase (SA-β-Gal) staining”. The “established neurites (TUJ1 staining)” value in the series with iPSC-derived mDA neurons (5 days of exposure, differentiated (day 65) mDA neurons) was “breakdown of established neurites”. Further, the “average dendrite length (MAP2)” value in the series with iPSC-derived mDA neurons (mDA neurons from young and old donor iPSCs, 5 days) is given as “marked reduction in average dendrite length”.
